Measurements taken from article PMC11191687.

Test: lactamisation (head-to-tail or side-chain-to-tail) of unprotected peptide acyl azide (from hydrazide, 20 equiv NaNO2, pH 3, -15 C, then NaHCO3 to pH ~7), MeCN cosolvent
Details: aq phosphate buffer (6 M GdmCl) diluted with 2 vol 50% MeCN/water, 2.2 mM, 2 steps

For C=CC[C@@H]1NC(=O)[C@H](CC(C)C)NC(=O)[C@H](CC(C)C)N(C)C(=O)[C@H](C)NC(=O)[C@H](Cc2ccc(O)c([N+](=O)[O-])c2)NC(=O)[C@H](CC(C)C)NC(=O)[C@H](Cc2cn(C(C)(C)C=C)c3ccccc23)NC1=O, which ring closure, conversion by HPLC (from C=CC[C@H](NC(=O)[C@H](CC(C)C)NC(=O)[C@H](CC(C)C)N(C)C(=O)[C@H](C)NC(=O)[C@H](Cc1ccc(O)c([N+](=O)[O-])c1)NC(=O)[C@H](CC(C)C)NC(=O)[C@@H](N)Cc1cn(C(C)(C)C=C)c2ccccc12)C(=O)N=[N+]=[N-], 21-membered ring, 0.27 h) is on record?
The ring closure, conversion by HPLC was less than 50%.

Which ring closure, conversion by HPLC (from C=CC[C@H](NC(=O)[C@H](CC(C)C)NC(=O)[C@H](CC(C)C)NC(=O)[C@H](C)NC(=O)[C@H](Cc1ccc(O)c([N+](=O)[O-])c1)NC(=O)[C@H](CC(C)C)N(C)C(=O)[C@@H](N)Cc1cn(C(C)(C)C=C)c2ccccc12)C(=O)N=[N+]=[N-], 21-membered ring, 0.27 h) does the source give for C=CC[C@@H]1NC(=O)[C@H](CC(C)C)NC(=O)[C@H](CC(C)C)NC(=O)[C@H](C)NC(=O)[C@H](Cc2ccc(O)c([N+](=O)[O-])c2)NC(=O)[C@H](CC(C)C)N(C)C(=O)[C@H](Cc2cn(C(C)(C)C=C)c3ccccc23)NC1=O here?
The ring closure, conversion by HPLC was less than 50%.

With C=CC[C@@H]1NC(=O)[C@H](CC(C)C)NC(=O)[C@H](CC(C)C)NC(=O)[C@H](C)NC(=O)[C@H](Cc2ccc(O)c([N+](=O)[O-])c2)NC(=O)[C@H](CC(C)C)NC(=O)[C@H](Cc2cn(C(C)(C)C=C)c3ccccc23)NC1=O as the compound, how does the ring closure, conversion by HPLC (from C=CC[C@H](NC(=O)[C@H](CC(C)C)NC(=O)[C@H](CC(C)C)NC(=O)[C@H](C)NC(=O)[C@H](Cc1ccc(O)c([N+](=O)[O-])c1)NC(=O)[C@H](CC(C)C)NC(=O)[C@@H](N)Cc1cn(C(C)(C)C=C)c2ccccc12)C(=O)N=[N+]=[N-], 21-membered ring) read?
The ring closure, conversion by HPLC was 0%.

Which ring closure, conversion by HPLC (from CCCCC(C)CCC(=O)N[C@@H](CCN)C(=O)N[C@H](C(=O)N[C@@H](CCN)C(=O)N[C@@H](CCN)C(=O)N[C@@H](CCN)C(=O)N[C@H](CC(C)C)C(=O)N[C@@H](CC(C)C)C(=O)N[C@@H](CCN)C(=O)N[C@@H](CCN)C(=O)N[C@H](C(=O)N=[N+]=[N-])[C@@H](C)O)[C@@H](C)O, 23-membered ring, 0.017 h) does the source give for CCCCC(C)CCC(=O)N[C@@H](CCN)C(=O)N[C@H](C(=O)N[C@@H](CCN)C(=O)N[C@H]1CCNC(=O)[C@H]([C@@H](C)O)NC(=O)[C@H](CCN)NC(=O)[C@H](CCN)NC(=O)[C@H](CC(C)C)NC(=O)[C@@H](CC(C)C)NC(=O)[C@H](CCN)NC1=O)[C@@H](C)O (stereo partly shown) here?
Its ring closure, conversion by HPLC is 56%.

Which ring closure, conversion by HPLC (from CC(=O)N[C@@H](Cc1ccccc1)C(=O)N[C@@H](CCCN)C(=O)N1CCC[C@H]1C(=O)N[C@H](Cc1ccc(O)cc1)C(=O)N[C@@H](Cc1c[nH]c2ccccc12)C(=O)N[C@@H](CCCNC(=N)N)C(=O)N=[N+]=[N-], 18-membered ring, 0.35 h) does the source give for CC(=O)N[C@@H](Cc1ccccc1)C(=O)N[C@H]1CCCNC(=O)[C@H](CCCNC(=N)N)NC(=O)[C@H](Cc2c[nH]c3ccccc23)NC(=O)[C@@H](Cc2ccc(O)cc2)NC(=O)[C@@H]2CCCN2C1=O [Ac-Phe-Orn(cyclises via side chain)-Pro-D-Tyr-Trp-Arg-N3] here?
The ring closure, conversion by HPLC was 95%.

With CC(C)C[C@H]1C(=O)N[C@@H](C)C(=O)N[C@@H](C)C(=O)N[C@@H](C)C(=O)N(C)[C@@H](CC(C)C)C(=O)N[C@@H](C)C(=O)N[C@@H](C)C(=O)N1C [H-Ala-N-Me-Leu-Ala-Ala-N-Me-Leu-Ala-Ala-N3] as the compound, how does the ring closure, conversion by HPLC (from CC(C)C[C@@H](C(=O)N[C@@H](C)C(=O)N[C@@H](C)C(=O)N(C)[C@@H](CC(C)C)C(=O)N[C@@H](C)C(=O)N[C@@H](C)C(=O)N=[N+]=[N-])N(C)C(=O)[C@H](C)N, 21-membered ring, 0.35 h) read?
The ring closure, conversion by HPLC was 89%.

For CC(C)C[C@H]1C(=O)N[C@@H](C)C(=O)N[C@@H](C)C(=O)N(C)[C@@H](CC(C)C)C(=O)N[C@@H](C)C(=O)NCC(=O)N[C@@H](C)C(=O)N1C [H-Ala-N-Me-Leu-Ala-Ala-N-Me-Leu-Ala-Gly-N3], which ring closure, conversion by HPLC (from CC(C)C[C@@H](C(=O)N[C@@H](C)C(=O)N[C@@H](C)C(=O)N(C)[C@@H](CC(C)C)C(=O)N[C@@H](C)C(=O)NCC(=O)N=[N+]=[N-])N(C)C(=O)[C@H](C)N, 21-membered ring, 0.35 h) is on record?
The ring closure, conversion by HPLC was 90%.

With C[C@@H]1NC(=O)[C@H](C)NC(=O)[C@@H]2CCCN2C(=O)[C@H](C)NC(=O)[C@H](C)NC(=O)[C@@H]2CCCN2C(=O)[C@H](C)NC1=O [H-Ala-Pro-Ala-Ala-Pro-Ala-Ala-N3] as the compound, how does the ring closure, conversion by HPLC (from C[C@H](N)C(=O)N1CCC[C@H]1C(=O)N[C@@H](C)C(=O)N[C@@H](C)C(=O)N1CCC[C@H]1C(=O)N[C@@H](C)C(=O)N[C@@H](C)C(=O)N=[N+]=[N-], 21-membered ring, 0.68 h) read?
Its ring closure, conversion by HPLC is 80%.

With C[C@@H]1NC(=O)CN(C)C(=O)[C@H](C)NC(=O)[C@H](C)NC(=O)CN(C)C(=O)[C@H](C)NC(=O)[C@H](C)NC1=O [H-Ala-Sar-Ala-Ala-Sar-Ala-Ala-N3] as the compound, how does the ring closure, conversion by HPLC (from C[C@H](N)C(=O)N(C)CC(=O)N[C@@H](C)C(=O)N[C@@H](C)C(=O)N(C)CC(=O)N[C@@H](C)C(=O)N[C@@H](C)C(=O)N=[N+]=[N-], 21-membered ring, 0.35 h) read?
Its ring closure, conversion by HPLC is 96%.

Which ring closure, conversion by HPLC (from CC(C)C[C@H](NC(=O)[C@H](CCCN)NC(=O)[C@@H](NC(=O)[C@H](Cc1ccc(O)cc1)NC(=O)[C@H](CCC(N)=O)NC(=O)[C@H](CC(N)=O)NC(=O)[C@@H](Cc1ccccc1)NC(=O)[C@H](Cc1ccccc1)NC(=O)[C@@H]1CCCN1C(=O)[C@H](N)Cc1ccccc1)C(C)C)C(=O)N=[N+]=[N-], 30-membered ring, 0.33 h) does the source give for CC(C)C[C@@H]1NC(=O)[C@H](CCCN)NC(=O)[C@H](C(C)C)NC(=O)[C@H](Cc2ccc(O)cc2)NC(=O)[C@H](CCC(N)=O)NC(=O)[C@H](CC(N)=O)NC(=O)[C@@H](Cc2ccccc2)NC(=O)[C@H](Cc2ccccc2)NC(=O)[C@@H]2CCCN2C(=O)[C@@H](Cc2ccccc2)NC1=O [H-D-Phe-Pro-Phe-D-Phe-Asn-Gln-Tyr-Val-Orn-Leu-N3] here?
The ring closure, conversion by HPLC was 95%.

Which ring closure, conversion by HPLC (from CC(C)C[C@H](NC(=O)[C@H](CCCN)NC(=O)[C@@H](NC(=O)[C@@H]1CCCN1C(=O)[C@@H](Cc1ccccc1)NC(=O)[C@H](CC(C)C)NC(=O)[C@H](CCCN)NC(=O)[C@@H](NC(=O)[C@@H]1CCCN1C(=O)[C@H](N)Cc1ccccc1)C(C)C)C(C)C)C(=O)N=[N+]=[N-], 30-membered ring, 0.33 h) does the source give for CC(C)C[C@@H]1NC(=O)[C@H](CCCN)NC(=O)[C@H](C(C)C)NC(=O)[C@@H]2CCCN2C(=O)[C@@H](Cc2ccccc2)NC(=O)[C@H](CC(C)C)NC(=O)[C@H](CCCN)NC(=O)[C@H](C(C)C)NC(=O)[C@@H]2CCCN2C(=O)[C@@H](Cc2ccccc2)NC1=O [H-D-Phe-Pro-Val-Orn-Leu-D-Phe-Pro-Val-Orn-Leu-N3] here?
Its ring closure, conversion by HPLC is 92%.

Which ring closure, conversion by HPLC (from CC(C)C[C@H](NC(=O)[C@H](Cc1ccc(O)cc1)NC(=O)[C@@H]1CCCN1C(=O)CN)C(=O)N[C@@H](C)C(=O)N=[N+]=[N-], 15-membered ring, 0.35 h) does the source give for CC(C)C[C@@H]1NC(=O)[C@H](Cc2ccc(O)cc2)NC(=O)[C@@H]2CCCN2C(=O)CNC(=O)[C@H](C)NC1=O [H-Gly-Pro-Tyr-Leu-Ala-N3] here?
The ring closure, conversion by HPLC was 77%.

With C=CC[C@@H]1NC(=O)[C@H](CC(C)C)NC(=O)[C@H](CC(C)C)N(C)C(=O)[C@H](C)NC(=O)[C@H](Cc2ccc(O)c([N+](=O)[O-])c2)NC(=O)[C@H](CC(C)C)N(C)C(=O)[C@H](Cc2cn(C)c3ccccc23)NC1=O [H-Leu-allylGly-Trp(1-Me)-N-Me-Leu-Tyr(3-NO2)-Ala-N-Me-Leu-N3] as the compound, how does the ring closure, conversion by HPLC (from C=CC[C@H](NC(=O)[C@@H](N)CC(C)C)C(=O)N[C@@H](Cc1cn(C)c2ccccc12)C(=O)N(C)[C@@H](CC(C)C)C(=O)N[C@@H](Cc1ccc(O)c([N+](=O)[O-])c1)C(=O)N[C@@H](C)C(=O)N(C)[C@@H](CC(C)C)C(=O)N=[N+]=[N-], 21-membered ring, 1.35 h) read?
Its ring closure, conversion by HPLC is 20%.

With CSCC[C@@H]1NC(=O)[C@H](C(C)C)NC(=O)[C@H](CC(C)C)NC(=O)CNC(=O)[C@@H]2CCCN2C(=O)[C@H](C(C)C)NC(=O)CNC(=O)[C@H](Cc2ccccc2)NC1=O [H-Phe-Gly-Val-Pro-Gly-Leu-Val-Met-N3] as the compound, how does the ring closure, conversion by HPLC (from CSCC[C@H](NC(=O)[C@@H](NC(=O)[C@H](CC(C)C)NC(=O)CNC(=O)[C@@H]1CCCN1C(=O)[C@@H](NC(=O)CNC(=O)[C@@H](N)Cc1ccccc1)C(C)C)C(C)C)C(=O)N=[N+]=[N-], 24-membered ring, 0.35 h) read?
The ring closure, conversion by HPLC was 38%.

With CC[C@H](C)[C@@H]1NC(=O)CNC(=O)[C@H](CO)NC(=O)[C@@H]2CCCN2C(=O)[C@H](C(C)C)NC(=O)[C@@H]2CCCN2C(=O)CNC(=O)[C@H](Cc2ccccc2)NC1=O [H-Pro-Val-Pro-Ser-Gly-Ile-Phe-Gly-N3] as the compound, how does the ring closure, conversion by HPLC (from CC[C@H](C)[C@H](NC(=O)CNC(=O)[C@H](CO)NC(=O)[C@@H]1CCCN1C(=O)[C@@H](NC(=O)[C@@H]1CCCN1)C(C)C)C(=O)N[C@@H](Cc1ccccc1)C(=O)NCC(=O)N=[N+]=[N-], 24-membered ring, 1.67 h) read?
The ring closure, conversion by HPLC was 58%.

Which ring closure, conversion by HPLC (from C=CC[C@H](N)C(=O)N[C@@H](Cc1cn(C)c2ccccc12)C(=O)N(C)[C@@H](CC(C)C)C(=O)N[C@@H](Cc1ccc(O)c([N+](=O)[O-])c1)C(=O)N[C@@H](C)C(=O)N(C)[C@@H](CC(C)C)C(=O)N[C@@H](CC(C)C)C(=O)N=[N+]=[N-], 21-membered ring, 0.35 h) does the source give for C=CC[C@@H]1NC(=O)[C@H](CC(C)C)NC(=O)[C@H](CC(C)C)N(C)C(=O)[C@H](C)NC(=O)[C@H](Cc2ccc(O)c([N+](=O)[O-])c2)NC(=O)[C@H](CC(C)C)N(C)C(=O)[C@H](Cc2cn(C)c3ccccc23)NC1=O [H-allylGly-Trp(1-Me)-N-Me-Leu-Tyr(3-NO2)-Ala-N-Me-Leu-Leu-N3] here?
Its ring closure, conversion by HPLC is 59%.
